Values of other authors in paper PMC9804730 (Diabetes, Obesity & Metabolism, 2022).

How the values were obtained:
[1] = N- and C-terminal degradation

In the case of “(D‐Arg^35)‐sea lamprey PYY (1–36) [SL‐PYY]”, the “effect on insulin secretion” value is listed as “insulinostatic”, the “effect on blood glucose levels in the acute setting” value (acute setting) is listed as “does not affect” and the enzymatic stability [1] is listed as “N‐ and C‐terminally enzyme‐resistant”.
